Several values for one entry are separate records, joined by “and”; a condition that tells them apart may be missing. Equal entries are not always repeated.
Test system: ANGIOTENSIN II (AII) VASOPRESSOR RESPONSE
Assay: AII Challenge: blockade of the angiotensin II vasopressor response in conscious spontaneously hypertensive rats
Assay type: in vivo, rat (Male Okamoto-Aoki SHR)
Conditions: 3 mg/kg i.v.
Excerpt: By administering a compound of this invention to a rat, and then challenging with angiotensin II, a blockage of the vasopressor response is realized.
Conscious Male Okamoto-Aoki SHR, 16-20 weeks old, weighing approximately 330 g are purchased from Charles River Labs (Wilmington, Mass.). Conscious rats are restrained in a supine position with elastic tape. The area at the base of the tail is locally anesthetized by subcutaneous infiltration with 2% procaine. The ventral caudal artery and vein are isolated, and a cannula made of polyethylene (PE) 10-20 tubing (fused together by heat) is passed into the lower abdominal aorta and vena cava, respectively. The cannula is secured, heparinized (1,000 I.U./ml), sealed and the wound is closed. The animals are placed in plastic restraining cages in an upright position. The cannula is attached to a Statham P23Db pressure transducer, and pulsatile blood pressure is recorded to 10-15 minutes with a Gould Brush recorder. (Chan et al., (Drug Development Res., 18:75-94, 1989).
Angiotensin II (human sequence, Sigma Chem. Co., St. Louis, Mo.) of 0.05 and 0.1 ug/kg i.v. is injected into all rats (predosing response). Then a test compound, vehicle or a known angiotensin II antagonist is administered i.v., i.p. or orally to each set of rats. The two doses of angiotensin II are given to each rat again at 30, 60, 90, 120, 180, 240 and 300 minutes post dosing the compound or vehicle. The vasopressor response of angiotensin II is measured for the increase in systolic blood pressure in mmHg. The percentage of antagonism or blockade of the vasopressor response of angiotensin II by a compound is calculated using the vasopressor response (increase in systolic blood pressure) of angiotensin II of each rat predosing the compound as 100%. A compound is considered active if at 30 mg/kg i.v. it antagonized at least 50% of the response.

[1] = AII 0.05 mcg/kg IV, 30 min post dose
[2] = AII 0.05 mcg/kg IV, 60 min post dose
[3] = AII 0.05 mcg/kg IV, 90 min post dose
[4] = AII 0.05 mcg/kg IV, 120 min post dose
[5] = AII 0.05 mcg/kg IV, 180 min post dose
[6] = AII 0.05 mcg/kg IV, 240 min post dose
[7] = AII 0.05 mcg/kg IV, 300 min post dose
[8] = AII 0.1 mcg/kg IV, 30 min post dose
[9] = AII 0.1 mcg/kg IV, 60 min post dose
[10] = AII 0.1 mcg/kg IV, 90 min post dose
[11] = AII 0.1 mcg/kg IV, 120 min post dose
[12] = AII 0.1 mcg/kg IV, 180 min post dose
[13] = AII 0.1 mcg/kg IV, 240 min post dose
[14] = AII 0.1 mcg/kg IV, 300 min post dose

Structure (SMILES): CCCCc1nc2ccc(C3CC4C(O3)ON3C4CCC3(C)C)cc2c(=O)n1Cc1ccc(-c2ccccc2-c2nnn[nH]2)cc1 (stereo not shown) [Example 14]
- % Inhibition [1]: 79%
- Average Change [1]: 7.5 mmHg
- Control Before AII (single rat) [1]: 225 mmHg and 240 mmHg
- Response After AII (single rat) [1]: 225 mmHg and 250 mmHg
- Response Change (single rat) [1]: 0 mmHg and 15 mmHg
- % Inhibition [2]: 64%
- Average Change [2]: 12.5 mmHg
- Control Before AII (single rat) [2]: 225 mmHg and 240 mmHg
- Response After AII (single rat) [2]: 235 mmHg and 255 mmHg
- Response Change (single rat) [2]: 10 mmHg and 15 mmHg
- % Inhibition [3]: 74%
- Average Change [3]: 9 mmHg
- Control Before AII (single rat) [3]: 225 mmHg and 237 mmHg
- Response After AII (single rat) [3]: 235 mmHg and 245 mmHg
- Response Change (single rat) [3]: 10 mmHg and 8 mmHg
- % Inhibition [4]: 76%
- Average Change [4]: 8.5 mmHg
- Control Before AII (single rat) [4]: 210 mmHg and 230 mmHg
- Response After AII (single rat) [4]: 215 mmHg and 242 mmHg
- Response Change (single rat) [4]: 5 mmHg and 12 mmHg
- % Inhibition [5]: 76%
- Average Change [5]: 8.5 mmHg
- Control Before AII (single rat) [5]: 215 mmHg and 230 mmHg
- Response After AII (single rat) [5]: 225 mmHg and 237 mmHg
- Response Change (single rat) [5]: 10 mmHg and 7 mmHg
- % Inhibition [6]: 71%
- Average Change [6]: 10 mmHg
- Control Before AII (single rat) [6]: 205 mmHg and 230 mmHg
- Response After AII (single rat) [6]: 215 mmHg and 240 mmHg
- Response Change (single rat) [6]: 10 mmHg
- % Inhibition [7]: 74%
- Average Change [7]: 9 mmHg
- Control Before AII (single rat) [7]: 220 mmHg and 235 mmHg
- Response After AII (single rat) [7]: 228 mmHg and 245 mmHg
- Response Change (single rat) [7]: 8 mmHg and 10 mmHg
- % Inhibition [8]: 56%
- Average Change [8]: 17.5 mmHg
- Control Before AII (single rat) [8]: 230 mmHg and 245 mmHg
- Response After AII (single rat) [8]: 240 mmHg and 270 mmHg
- Response Change (single rat) [8]: 10 mmHg and 25 mmHg
- % Inhibition [9]: 56%
- Average Change [9]: 17.5 mmHg
- Control Before AII (single rat) [9]: 215 mmHg and 245 mmHg
- Response After AII (single rat) [9]: 235 mmHg and 260 mmHg
- Response Change (single rat) [9]: 20 mmHg and 15 mmHg
- % Inhibition [10]: 60%
- Average Change [10]: 16 mmHg
- Control Before AII (single rat) [10]: 220 mmHg and 240 mmHg
- Response After AII (single rat) [10]: 235 mmHg and 257 mmHg
- Response Change (single rat) [10]: 15 mmHg and 17 mmHg
- % Inhibition [11]: 63%
- Average Change [11]: 15 mmHg
- Control Before AII (single rat) [11]: 215 mmHg and 230 mmHg
- Response After AII (single rat) [11]: 230 mmHg and 245 mmHg
- Response Change (single rat) [11]: 15 mmHg
- % Inhibition [12]: 69%
- Average Change [12]: 12.5 mmHg
- Control Before AII (single rat) [12]: 215 mmHg and 230 mmHg
- Response After AII (single rat) [12]: 225 mmHg and 245 mmHg
- Response Change (single rat) [12]: 10 mmHg and 15 mmHg
- % Inhibition [13]: 56%
- Average Change [13]: 17.5 mmHg
- Control Before AII (single rat) [13]: 215 mmHg and 225 mmHg
- Response After AII (single rat) [13]: 230 mmHg and 245 mmHg
- Response Change (single rat) [13]: 15 mmHg and 20 mmHg
- % Inhibition [14]: 46%
- Average Change [14]: 21.5 mmHg
- Control Before AII (single rat) [14]: 215 mmHg and 235 mmHg
- Response After AII (single rat) [14]: 233 mmHg and 260 mmHg
- Response Change (single rat) [14]: 18 mmHg and 25 mmHg

From patent US5281604A, “Angiotensin II receptor blocking 2,3,6-substituted quinazolinones” (American Cyanamid Company, priority 1993, dated 1994)
